According to patent US5336485A, “Method for protecting animals against tacrine induced cytotoxic injury using sterol compounds” (priority 1993, dated 1994):
Counter-ions that a name gives are not always drawn.

Legend:
rat hepatocytes [1] = test: EMS-induced cytotoxicity (LDH leakage/cell death) in rat hepatocyte suspensions; settings: for Protection From Toxic Injury: EMS 3 h
Protocol: To determine if alpha-TS is a cytoprotective agent under physiological conditions, liver cells were incubated with Waymouth's medium containing approximately 1 mM extracellular Ca^2+ in the presence and absence of alpha-TS.
(§1) At each time-point, rapid separation of viable from non-viable hepatocytes and medium was accomplished by the dibutyl phthalate centrifugation method. Cell viability was monitored hourly by measuring LDH leakage with a Cobas Analyzer and intracellular [K^+ ]with a flame photometer. LDH was routinely measured in the medium while intracellular K^+ was measured in the 10% perchloric acid lysate of viable cells. Lipid peroxidation was determined by measuring TBA reactants in the medium. […] The samples were diluted with 0.3 ml 1% ascorbate in 0.1 M SDS, 0.4 ml ethanol, sonicated and extracted once with 0.8 ml hexane. Next, the hexane extract was evaporated to dryness with N2, the residue dissolved in 2.5% ascorbate in methanol (1 ml) and analyzed (100 μl) by high-performance liquid chromatograph (HPLC). […] The mobile phase, 95% MeOH was run isocratically and the HPLC retention times for delta and alpha-tocopherol were approximately eleven and sixteen minutes, respectively. […] Following the addition of 0.2 ml 4 M HC1, the neutralized KOH-MeOH extracted with 0.8 ml hexane. […] A standard curve for each tocopherol congener was run with every assay. […] Only viable cells were monitored in the laboratory procedures.
To determine the relative cytoprotective potency of various tocopherol derivatives, the effect of varying doses of a tocopherol analog on the protection against EMS-induced toxicity was examined in vitro on rat hepatocyte suspensions. Specifically, the following ionizable tocopherol congeners were tested: alpha-TS, alpha tocopheryl glutarate (alpha-TG), and alpha tocopheryl phosphate (alpha-TP). […] 0.1 nmoles is the lower detection limit.
In vitro experiments were conducted with a variety of different tocopherol and succinate analogs to determine which were protective against EMS induced toxicity. After five hours of incubation with 50 mM EMS and 25μM of a tocopherol or succinate analog, cytoprotection was determined by comparing the percentage of LDH leakage from control hepatocytes (vehicle only, assumed 100% protection) with the EMS only treated cells (assumed 0% protection).
An in vitro experiment with rat hepatocyte suspensions was performed to determine the effect of esterase inhibitors on alpha-TS.
(§2) Rat hepatocyte suspensions were subjected to 50 mM EMS and the percentage of cell death, the percentage of intracellular K^+ (a metabolic parameter as discussed above), the depletion of ATP and the effect on lipid peroxidation were monitored.

rat hepatocytes [2] = test: Cellular alpha-tocopherol and tocopherol ester content of rat hepatocytes; settings: for Hepatocyte Concentration Alpha-T: EMS 3 h
Protocol: as §1
The hepatocytes were subsequently exposed to 50mM EMS for three hours.

male Sprague-Dawley rats = test: CCl4 induced lethality in rats; format: in vivo, rat
Protocol: The in vivo effect of alpha-TS was tested by administering a lethal oral dose of carbon tetrachloride (CC14) to male Sprague-Dawley rats.
In the experiment described in Table 3, a single dose of alpha-TS dissolved in peanut oil:ethanol (3:2) was given to male Sprague-Dawley rats. The dose was given 24 hours prior to an orally administered CCl4 challenge dissolved in peanut oil. Two to nine animals were tested per treatment. The control group comprised rats pretreated with the vehicle only. Survival was monitored for at least 7 days after the toxic insult.
In vivo experiments were performed to determine if the time the ionizable tocopherol analog (alpha-TS) is administered affects the cytoprotective functions. Male Sprague-Dawley rats were given a 100 mg/kg intraperitoneal dose of a tocopherol or succinate analog and were given a lethal dose of CCl4 (2.9g/kg by oral gavage). Table 7 contrasts the times of administration of the tocopherol or succinate analog and the times of administration of the lethal dose of CCl4 with the survival of the rats in the study (3to 6 rats per protective treatment).
Several tocopherol and succinate analogs were tested for CCl4 induced lethality. A single dose of the tocopherol or succinate analog was administered twenty four hours prior to orally administering 2.9 g CCl4 /kg body weight. Three to six animals were analyzed per treatment. The rats were monitored for seven days. […]

cultured rat hepatocytes = test: EMS-induced toxicity and lipid peroxidation in primary cultures of rat hepatocytes; format: cell-based; settings: for Cell Death / Lipid Peroxidation: 50 mM EMS, 6 hrs
Protocol: To confirm the cytoprotective properties of alpha-TP under physiological conditions in vitro tests using primary cultures of adult rat hepatocytes were conducted (another in vitro model system). Unlike the hepatocyte suspensions used for the in vitro modeling discussed above, cultured hepatocytes retain their in vivo cuboidal shape as a result of attachment to a collagen matrix, and their lifespan in vitro is 5 to 7 days, instead of 8-12 hours (as with suspensions).

rat hepatocytes [3] = test: ATP content of rat hepatocyte suspensions; format: cell-based
Description: It is well known that the succinate molecule is utilized by the cell to produce ATP energy. In the tricarboxylic acid cycle, succinate is oxidized by succinate dehydrogenase to produce ATP. Oxidation occurs in the mitochondria and the mitochondria can utilize both succinate formed in the mitochondria or succinate transported to the mitochondria. Increasing ATP production may enhance cellular repair processes as well as normal metabolic processes. For example, the cell's ability to remove free intracellular Ca^2+ during a toxic insult is related to ATP production. Succinate administration stimulates gluconeogenesis to form glucose 6-phosphate which is used for producing energy anaerobically (ATP formation through glycolysis) and for producing reducing equivalents (NADPH formation through the hexose monophosphate shunt needed for lipid and nucleotide biosynthesis and other biosynthetic reductions and enzymatic reactions, e.g., glutathione reductase). An in vitro experiment was conducted to determine the relationship between the release of succinate from alpha-TS and the cellular ATP level. The experiment was performed by incubating a tocopherol analog in a rat hepatocyte suspension and measuring the ATP level at the beginning and end of the test.
as §2

liver [4] = test: CCl4 induced hepatotoxicity in rats (serum AST/ALT); format: in vivo, rat
Protocol: In vivo experiments were performed to determine if alpha-TS administration protects the liver from chemical toxicity. The liver is the target organ for CCl4. CCl4 is a hepatotoxic agent that induces centrilobular liver necrosis through its metabolism to free radicals. Male Sprague-Dawley rats were given an intraperitoneal dose (100 mg/kg) of a tocopherol analog 24 hours prior to a CCl4 challenge (2.9g/kg given by oral garage). Forty eight hours after the challenge, the rats were sacrificed and the levels of aspartate aminotransferase (AST) and alanine aminotransferase (ALT) were measured.
As discussed above, SGOT levels provide a clinical assessment of hepatotoxicity (liver damage).
Succinate analogs were administered to male Sprague-Dawley rats 20 hours prior to a 1 g CCl4 /kg body weight oral challenge and the AST and ALT serum enzyme levels were measured 48 hours after the challenge.
Similar to the experiments were described above, the ionizable congeners were administered to Sprague-Dawley rats by i.p. injection of a 100 mg ionizable congener/kg body weight dose 20 hours prior to oral administration of a 1 g/kg dose of CCl4, and the AST and ALT levels were measured 48 hours after the CCl4 challenge.

liver [5] = test: Partial liver ischemia/reperfusion-induced injury in rats; format: in vivo, rat; settings: dihydrocholesterol sulfate vs dihydrocholesterol plus sodium sulfate
Protocol: 20 hours prior to global occlusion, one group of 10 rats was provided with 64 mg cholesterol/kg body weight and 100 mg tris succinate/kg body weight by i.p. injection, and another group of 10 rats was provided with 100 mg cholesteryl succinate/kg body weight. A control group of rats was only partially occluded for the one hour period. Ninety percent of the rats pretreated with cholesteryl succinate tris salt survived while only 10% of those pretreated with the combination of cholesterol and tris succinate survived. Table 22 of a partial ischemia study where male Sprague-Dawley rats were subjected to occlusion of the blood supply to the left lateral and median lobes of the liver for 60 minutes followed by reperfusion for 24 hours. During this time, the normal blood supply to the other lobes of the liver was maintained. […] Serum was obtained for AST and ALT measurements.
^a Partial liver ischemia was induced in male Sprague Dawley rats

rat hepatocytes [6] = test: EMS-induced lipid peroxidation in rat hepatocyte suspensions; format: cell-based; settings: Rattus norvegicus, Hepatocyte; 25 μM, 50 mM EMS
Protocol: as §1, §2

[7] = Tissue distribution of alpha-tocopherol and alpha-tocopherol ester in rats; format: in vivo, rat; settings: 100 mg/kg ip, 24 h
Protocol: 100 mg/kg body weight of a tocopherol analog was administered to Sprague-Dawley rats using a peanut oil:ethanol vehicle (3:2). Twenty four hours later the rats were sacrificed and the accumulation of the tocopherol analog in the liver was determined.
A similar in vivo experiment to that discussed in conjunction with Table 5 was performed to determine if other tissues accumulate alpha-TS. Male Sprague-Dawley rats were given a 100 mg/kg dose of alpha-TS using a variety of chemical forms and vehicles. A variety of techniques were used to administer the alpha-TS. Twenty four hours later the rats were sacrificed and the tissues were tested for alpha-TS accumulation.

[8] = 100 mg/kg, single dose 24 h prior, CCl4 […]
[9] = 100 mg/kg ip (dihydrocholesterol 80 + sodium sulfate 30 mg/kg), 48 h after 1 g/kg CCl4 (Table 35)
[10] = 100 mg/kg ip, PEG 400 vehicle, 48 h after 1 g/kg CCl4 (Table 34)

Compound: Cc1c(C)c2c(c(C)c1OP(=O)(O)O)CCC(C)(CCCC(C)CCCC(C)CCCC(C)C)O2 (racemic) [alpha-TP, dl-alpha-tocopheryl phosphate]
- minimal effective concentration (rat hepatocytes [1]; Rattus norvegicus, Hepatocyte, read-out: medium concentration with significant protection against EMS toxicity): ≥ 50 µM
- cellular accumulation of alpha-TP (rat hepatocytes [2]; EMS): 2.68 nmols/10^6 cells
- Days Survived After CCl4 Treatment (male Sprague-Dawley rats; [8]): 3 days
- Cell Death (cultured rat hepatocytes; 25 μM): 16 ± 3%
- Lipid Peroxidation (cultured rat hepatocytes; 25 μM): 2.5 ± 0.9 μmoles MDA/10^6 cells
- Cell Death (cultured rat hepatocytes; 100 μM): 15 ± 3%
- Lipid Peroxidation (cultured rat hepatocytes; 100 μM): 2.3 ± 0.1 μmoles MDA/10^6 cells
- Cell Death (cultured rat hepatocytes; 250 μM): 20 ± 3%
- Lipid Peroxidation (cultured rat hepatocytes; 250 μM): 1.7 ± 0.1 μmoles MDA/10^6 cells
- cytoprotection at 3.5 mM extracellular Ca2+ (cultured rat hepatocytes; 3.5 mM Ca2+): eliminated
- Rate of ATP Depletion (rat hepatocytes [3]; 50 μM): 2.0 ± 0.2 nmoles/10^6 cell/hr
- Cellular ATP (rat hepatocytes [3]; 50 μM, 0 Hr): 19.4 ± 1.6 nmoles/10^6 cells
- Cellular ATP (rat hepatocytes [3]; 50 μM, 6 Hr): 7.3 ± 0.2 nmoles/10^6 cells

Compound: CC(C)CCC[C@@H](C)[C@H]1CC[C@H]2[C@@H]3CC[C@H]4C[C@@H](OS(=O)(=O)O)CC[C@]4(C)[C@H]3CC[C@]12C [Dihydrocholesterol sulfate, sodium salt]
- ALT (liver [4]; [9]): 0.02 ± 0.01 10^3 units/L
- AST (liver [4]; [9]): 0.17 ± 0.04 10^3 units/L
- ALT (liver [4]; [10]): 0.03 ± 0.03 10^3 units/L
- AST (liver [4]; [10]): 0.15 ± 0.07 10^3 units/L
- inhibition in vivo at 100 mg/kg (liver [4]; Rattus norvegicus, ip, 48 h, read-out: % Hepatoprotection): 100%
- protection against CCl4 hepatotoxicity (in words) (liver [4]; rats, serum enzyme levels): complete protection against hepatotoxicity
- ALT (liver [5]): 1305±568

Compound: Cc1c(C)c2c(c(C)c1O)CC[C@@](C)(CCC[C@H](C)CCC[C@H](C)CCCC(C)C)O2 [alpha-T, d-alpha-tocopherol, reference compound]
- Protection From Toxic Injury (rat hepatocytes [1]; 25 μM): No
- Protection From Toxic Injury (rat hepatocytes [1]; 50 μM): No
- Protection From Toxic Injury (rat hepatocytes [1]; 250 μM): No
- inhibition at 25 µM (rat hepatocytes [1]; Rattus norvegicus, Hepatocyte, 5 h, read-out: Percent Cytoprotection): 8 ± 10%
- inhibition at 25 µM (rat hepatocytes [1]; Rattus norvegicus, Hepatocyte, read-out: % Protection): 19%
- protection of hepatocytes against EMS (rat hepatocytes [1]; up to 250 μM): Protection was not afforded
- inhibition at 25 µM (rat hepatocytes [6]): 9%
- Hepatocyte Concentration Alpha-T (rat hepatocytes [2]; 25 μM): 2.1 ± 0.7 nmol/10^6 cells
- Cellular alpha-T (rat hepatocytes [2]; 25 μM, Table 2): 2.6 nmoles/10^6 cells
- Hepatocyte Concentration Alpha-T (rat hepatocytes [2]; 50 μM): 6.1 ± 0.7 nmol/10^6 cells
- Hepatocyte Concentration Alpha-T (rat hepatocytes [2]; 250 μM): 23.7 ± 2.4 nmol/10^6 cells
- Survival after CCl4 treatment (male Sprague-Dawley rats; 100 mg/kg ip 24 h prior, […] CCl4 oral): No
- Protection from CCl4 (male Sprague-Dawley rats; 100 mg/kg ip (Table 5)): No
- Days Survived After CCl4 Treatment (male Sprague-Dawley rats; 100 mg/kg ip, 24 h prior, CCl4 2.2 g/kg): 3 days
- Days Survived After CCl4 Treatment (male Sprague-Dawley rats; 100 mg/kg ip, 24 h prior, CCl4 3.8 g/kg): 2 days
- Days Survived After CCl4 Treatment (male Sprague-Dawley rats; 100 mg/kg ip, 24 h prior, CCl4 5.0 g/kg): 2 days
- Days Survived After CCl4 Treatment (male Sprague-Dawley rats; 100 mg/kg ip, 24 h prior, CCl4 […]): 2 days
- Days Survived After CCl4 Treatment (male Sprague-Dawley rats; [8]): 3 days
- Days Survived after CCl4 (male Sprague-Dawley rats; CCl4 1.7 g/kg): three
- Liver Concentration Alpha-T [7]: 128 ± 10 nmol/g
- Rate of ATP Depletion (rat hepatocytes [3]; 25 μM): 1.5 ± 0.2 nmoles/10^6 cell/hr
- Cellular ATP (rat hepatocytes [3]; 25 μM, 0 Hr): 15.2 ± 1.6 nmoles/10^6 cells
- Cellular ATP (rat hepatocytes [3]; 25 μM, 6 Hr): 6.3 ± 0.8 nmoles/10^6 cells
